# pIC50: −log10 of the molar value. Counter-ions that a name gives are not always drawn.
# Tests used:
# HCT116 = assay: Inhibition of cancer cell proliferation (MTT); format: cell-based, human
# SH-SY5Y = assay: Inhibition of cancer cell proliferation (MTT); format: cell-based, human
# Summary of the method: (§1)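 72 h MTT proliferation assay; cells seeded at 3000/well (A549, SK-N-SH, SH-SY5Y, NCI-H23) and attached 16 h at 37 °C, then treated at 0.004–10 uM with 0.08% DMSO control. Absorbance at 535 nm read after 2 h MTT; GI50 from viability relative to untreated control.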
# SK-N-SH = assay: Inhibition of cancer cell proliferation (MTT); format: cell-based, human
# Summary of the method: as §1
# U-87MG = assay: Inhibition of cancer cell proliferation (MTT); format: cell-based, human
# Summary of the method: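 Absorbance at 535 nm of DMSO-dissolved formazan (2 h MTT) gives viability versus 0.08% DMSO-treated cells, and GI50 is derived from eight concentrations between 0.004 and 10 uM. Exposure lasts 72 h at 37 °C, 5% CO2, using 3000 cells/well in 10% FBS medium ([…] for NCI-H23, otherwise DMEM).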
# CDK1/cyclinB = target: T1, CDK1/cyclinB (Homo sapiens, UniProt P06493); assay: Inhibition of CDK enzyme activity (ADP-Glo kinase assay); format: biochemical; settings: 10 uM ATP, histone H1 substrate
# T1 construct: purchased Merck Millipore
# T1 sequence (P06493 whole entry): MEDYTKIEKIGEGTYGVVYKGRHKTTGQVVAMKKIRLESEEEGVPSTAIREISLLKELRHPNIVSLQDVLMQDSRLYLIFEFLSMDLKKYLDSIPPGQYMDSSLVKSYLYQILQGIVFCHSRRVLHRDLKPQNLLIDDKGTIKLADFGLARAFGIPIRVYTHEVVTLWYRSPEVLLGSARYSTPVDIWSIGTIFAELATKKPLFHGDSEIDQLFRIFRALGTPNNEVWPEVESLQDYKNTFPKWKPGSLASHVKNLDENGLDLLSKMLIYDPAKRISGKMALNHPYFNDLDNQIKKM
# T1 sequence (P14635 whole entry partner): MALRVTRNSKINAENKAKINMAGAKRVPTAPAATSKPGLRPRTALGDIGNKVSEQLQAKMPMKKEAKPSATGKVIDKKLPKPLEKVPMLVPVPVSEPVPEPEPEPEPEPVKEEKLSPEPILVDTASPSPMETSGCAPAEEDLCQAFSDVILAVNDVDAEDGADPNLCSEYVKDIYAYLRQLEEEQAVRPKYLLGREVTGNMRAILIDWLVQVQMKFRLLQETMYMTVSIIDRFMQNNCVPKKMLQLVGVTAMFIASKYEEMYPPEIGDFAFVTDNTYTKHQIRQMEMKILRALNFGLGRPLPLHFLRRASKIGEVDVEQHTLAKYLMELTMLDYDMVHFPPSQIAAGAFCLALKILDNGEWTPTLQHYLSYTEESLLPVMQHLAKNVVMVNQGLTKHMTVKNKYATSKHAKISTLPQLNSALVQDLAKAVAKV
# Procedure: (§2) Test compounds were prepared by dissolving the compounds obtained in the above Examples in dimethylsulfoxide (DMSO) at a concentration of 10 mM. The test compounds were diluted to 200 nM, 50 nM, […], 3.13 nM, 0.78 nM, and 0.2 nM and used in an enzyme reaction.
# (§3) CDK enzyme reaction was conducted in a buffer containing 50 mM Tris-HCl (pH 7.5), 10 mM MgCl2, 1 mM EGTA, 1 mM EDTA, and 2 mM DTT. CDK1/cyclinB, CDK2/cylcinE, CDK5/p25, and CDK6/cyclinD3 enzymes commercially available from Merck Millipore were used for CDK1, CDK2, CDK5, and CDK6 enzymes, respectively, and CDK4/cyclinD1 enzyme commercially available from Signalchem (US) was used for CDK4. For CDK1, a reaction proceeded by adding 10 nM CDK1/cyclinB and 0.125 mg/ml histone H1 (Merck Millipore) substrate to the buffer and then adding 10 uM ATP thereto. For CDK2, a reaction was proceeded by adding 10 nM CDK2/cyclinE and 0.125 mg/ml histone H1 substrate to the buffer and then adding 10 uM ATP thereto. For CDK5, a reaction was proceeded by adding 10 nM CDK5/p25 and 0.125 mg/ml histone H1 substrate to the buffer and then adding 10 uM ATP thereto. For CDK4, a reaction was proceeded by adding 20 nM CDK4/cyclinD1 and 0.125 mg/ml Rb protein (Merck Millipore) to the buffer and then adding 10 uM ATP thereto. For CDK6, a reaction was proceeded by adding 50 nM CDK6/cyclinD3 and 0.125 mg/ml histone H1 substrate to the buffer and then adding 10 uM ATP thereto. Each enzyme reaction was incubated at 30° C. for 60 min. Then, the amount of ADP produced was measured using Victor X4 instrument (Perkin Elmer) after generating luminescence using ADP-Glo kinase assay kit (Promega, US). An inhibition effect on each enzyme was represented as a percentage of the luminescence value in the presence of the test compounds relative to the luminescence value without the test compounds. IC50 (nM) is the concentration of the compound to inhibit 50% of the enzyme activity.
# CDK2/cyclinE = target: T2, CDK2/cyclinE (Homo sapiens, UniProt P24941); assay: as above; format: biochemical; settings: 10 uM ATP, histone H1 substrate
# T2 construct: purchased Merck Millipore
# Procedure: as §2, §3
# CDK4/cyclinD1 = target: T3, CDK4/cyclinD1 (Homo sapiens, UniProt P11802); assay: as above; format: biochemical; settings: 10 uM ATP, Rb protein substrate; read-out: IC50 CDK4/cyclinD
# T3 construct: purchased Signalchem (US)
# T3 sequence (P11802 whole entry): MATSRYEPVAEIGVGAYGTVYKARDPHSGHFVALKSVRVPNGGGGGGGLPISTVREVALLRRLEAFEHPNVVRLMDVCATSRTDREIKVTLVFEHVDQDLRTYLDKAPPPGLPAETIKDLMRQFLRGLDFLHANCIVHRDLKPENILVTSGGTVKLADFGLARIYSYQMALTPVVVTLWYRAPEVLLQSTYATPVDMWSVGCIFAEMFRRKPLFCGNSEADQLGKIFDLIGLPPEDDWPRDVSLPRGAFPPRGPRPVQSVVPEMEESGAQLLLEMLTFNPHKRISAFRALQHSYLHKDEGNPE
# T3 sequence (P24385 whole entry partner): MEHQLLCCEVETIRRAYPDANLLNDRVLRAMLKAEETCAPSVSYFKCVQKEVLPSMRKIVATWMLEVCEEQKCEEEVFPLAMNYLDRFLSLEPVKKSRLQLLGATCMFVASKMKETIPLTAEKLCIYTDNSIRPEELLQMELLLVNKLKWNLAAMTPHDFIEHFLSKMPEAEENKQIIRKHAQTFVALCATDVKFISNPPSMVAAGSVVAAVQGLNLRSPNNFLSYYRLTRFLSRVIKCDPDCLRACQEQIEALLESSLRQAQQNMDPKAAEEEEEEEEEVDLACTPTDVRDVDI
# Procedure: as §2, §3
# CDK5/p25 = target: T4, CDK5/p25 (Homo sapiens, UniProt Q00535); assay: as above; format: biochemical; settings: 10 uM ATP, histone H1 substrate
# T4 construct: purchased Merck Millipore
# T4 sequence (Q00535 whole entry): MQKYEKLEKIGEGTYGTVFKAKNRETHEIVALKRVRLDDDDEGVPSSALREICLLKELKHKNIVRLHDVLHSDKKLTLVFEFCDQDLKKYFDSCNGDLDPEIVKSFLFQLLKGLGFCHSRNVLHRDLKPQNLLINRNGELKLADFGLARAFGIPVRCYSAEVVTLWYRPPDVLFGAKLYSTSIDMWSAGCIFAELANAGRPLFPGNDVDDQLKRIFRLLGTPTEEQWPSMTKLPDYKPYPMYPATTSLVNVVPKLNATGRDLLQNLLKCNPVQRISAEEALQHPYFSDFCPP
# T4 sequence (Q15078 99-307 partner limits assumed): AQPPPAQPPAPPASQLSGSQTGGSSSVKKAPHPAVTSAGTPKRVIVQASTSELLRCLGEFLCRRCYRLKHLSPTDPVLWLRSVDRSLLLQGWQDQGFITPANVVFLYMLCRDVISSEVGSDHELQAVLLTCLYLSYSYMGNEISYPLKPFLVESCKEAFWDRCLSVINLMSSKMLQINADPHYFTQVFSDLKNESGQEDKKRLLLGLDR
# Procedure: as §2, §3
# CDK6/cyclinD3 = target: T5, CDK6/cyclinD3 (Homo sapiens, UniProt Q00534); assay: as above; format: biochemical; settings: 10 uM ATP, histone H1 substrate; read-out: IC50 CDK6/cyclinD
# T5 construct: purchased Merck Millipore
# T5 sequence (Q00534 whole entry): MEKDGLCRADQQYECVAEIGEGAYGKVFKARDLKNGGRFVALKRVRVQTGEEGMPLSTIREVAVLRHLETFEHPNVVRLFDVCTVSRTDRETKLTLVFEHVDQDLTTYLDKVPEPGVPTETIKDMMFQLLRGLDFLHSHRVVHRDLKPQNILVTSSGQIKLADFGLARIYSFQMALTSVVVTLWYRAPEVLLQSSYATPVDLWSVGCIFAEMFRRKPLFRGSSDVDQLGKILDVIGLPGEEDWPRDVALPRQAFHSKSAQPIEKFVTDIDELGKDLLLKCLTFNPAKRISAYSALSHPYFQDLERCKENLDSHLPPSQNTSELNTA
# T5 sequence (P30281 whole entry partner): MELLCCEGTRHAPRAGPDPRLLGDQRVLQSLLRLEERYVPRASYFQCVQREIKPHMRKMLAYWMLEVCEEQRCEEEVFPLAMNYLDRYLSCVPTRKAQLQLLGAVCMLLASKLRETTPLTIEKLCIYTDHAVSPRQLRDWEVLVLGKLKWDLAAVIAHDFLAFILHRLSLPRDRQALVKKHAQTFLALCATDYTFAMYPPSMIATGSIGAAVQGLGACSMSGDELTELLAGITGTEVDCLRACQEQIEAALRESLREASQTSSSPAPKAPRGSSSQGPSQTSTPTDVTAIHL
# Procedure: as §2, §3
# A549 = assay: Inhibition of cancer cell proliferation (MTT); format: cell-based, human
# Summary of the method: as §1
# NCI-H23 = assay: Inhibition of cancer cell proliferation (MTT); format: cell-based, human
# Summary of the method: as §1
# T98G = assay: Inhibition of cancer cell proliferation (MTT); format: cell-based, human
# Summary of the method: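 Plate 3000 cells/well and let them adhere for 16 h. Add compound (0.004, 0.013, 0.04, 0.12, 0.37, 1.1, 3.3, 10 uM; 0.08% DMSO) and culture for 72 h. Add MTT for 2 h, dissolve formazan in DMSO, read at 535 nm, and fit GI50.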
# Tau protein = assay: Inhibition of Tau phosphorylation (Western blot, pSer202) in SH-SY5Y cells; format: cell-based; settings: 4 hrs
# Procedure: SH-SY5Y cells expressing Tau protein were cultured in DMEM containing 10% FBS. 2.5×10^6 cells were placed in a 6-well plate and incubated at 5% CO2 and 37° C. for 16 hrs. The compounds obtained in the above Examples serially diluted ⅓ from 3 uM to 0.5 nM or the compounds in a concentration of 0.3, 0.1, 0.03, 0.01, 0.003 uM were treated for 4 hrs in DMEM containing 5% FBS. After 4 hrs, the culture solution was removed, washed with PBS, and cells were lysed by adding 100 ul of lysis buffer. The lysis buffer consisted of 50 mM Tris-HCl (pH 7.5), 150 mM NaCl, 5 mM EDT, 1 mM EGTA, 50 mM NaF, 1 mM PMSF, 1 mM Na3VO4, 2.5 mM DTT, 1% Triton X-100, and Protease inhibitor (Pierce). The lysed cells were centrifuged at 10,000 rpm and 4° C. for 10 min and the proteins in the supernatant were quantified. 25 ug of the proteins were electrophoresed on a SDS-PAGE gel and transferred to PVDF (Amersharm) membrane. The PVDF membrane was immersed in T-PBS containing 10% skim milk and shaken for 1 hr at room temperature. The primary antibody, Phosph-Tau[pSer202] (Abcam), diluted 1:1500 in T-PBS solution containing 5% skim milk was reacted with the membrane at room temperature for 2 hrs. The membrane was washed with T-PBS. The secondary antibody, Anti-rabbit IgG HRP, diluted 1:5000 was added to the membrane, reacted at room temperature for 1 hr, and washed.
SMILES,GI50 (HCT116; 72 hrs) [nM],GI50 (U-87MG; 72 hrs) [nM],"GI50 (HCT116; Homo sapiens, HCT-116, 72 h) [nM]","GI50 (U-87MG; Homo sapiens, U-87 MG, 72 h) [nM]",pIC50 (CDK1/cyclinB),pIC50 (CDK2/cyclinE),pIC50 (CDK4/cyclinD1),pIC50 (CDK5/p25),pIC50 (CDK6/cyclinD3),"GI50 (A549; Homo sapiens, A549, 72 h) [nM]","GI50 (NCI-H23; Homo sapiens, NCI-H23, 72 h) [nM]",further results
"Nc1cccc(-c2ccc(O)c(-c3ccnc(N)n3)n2)c1 [Example 16, 6-(3-aminophenyl)-2-(2-aminopyrimidin-4-yl)pyridin-3-ol]",–,–,1330,3600,–,–,–,–,–,–,–,"GI50 (SH-SY5Y; Homo sapiens, SH-SY5Y, 72 h): 570 nM; GI50 (SK-N-SH; Homo sapiens, SK-N-SH, 72 h): 2910 nM"
"Nc1nccc(-c2nc(-c3cccc(O)c3)ccc2O)n1 [Example 13, 2-(2-aminopyrimidin-4-yl)-6-(3-hydroxyphenyl)pyridin-3-ol]",–,–,6970,4600,–,–,–,–,–,–,–,"GI50 (SH-SY5Y; Homo sapiens, SH-SY5Y, 72 h): 680 nM; GI50 (SK-N-SH; Homo sapiens, SK-N-SH, 72 h): 7220 nM"
"Nc1nc(-c2nc(-c3ccnc(N)c3F)ccc2O)cc(C2CCNCC2)n1 [Example 33, 2′-amino-6-(2-amino-6-(piperidin-4-yl)pyrimidin-4-yl)-3′-fluoro-[2,4′-bipyridin]-5-ol]",–,–,50,150,7.77,8.43,7.41,8.00,6.62,190,1710,"GI50 (T98G; Homo sapiens, T98G, 72 h): 260 nM"
"Cc1cc(-c2nc(-c3ccnc(N)c3F)ccc2O)nc(N)n1 [Example 24, 2′-amino-6-(2-amino-6-methylpyrimidin-4-yl)-3′-fluoro-[2,4′-bipyridin]-5-ol]",–,–,20,–,9.22,9.05,6.47,9.15,7.47,–,–,–
"CN1CCC(c2cc(-c3nc(-c4ccnc(N)c4F)ccc3O)nc(N)n2)CC1 [Example 34, 2′-amino-6-(2-amino-6-(1-methylpiperidin-4-yl)pyrimidin-4-yl)-3′-fluoro-[2,4′-bipyridin]-5-ol]",20,30,–,–,8.68,8.66,7.50,8.66,6.75,–,–,GI50 (A549; 72 hrs): 40 nM; GI50 (NCI-H23; 72 hrs): 70 nM; GI50 (T98G; 72 hrs): 150 nM; Phosphorylation (%) of Tau (Tau protein; 0.003 uM): 103%; Phosphorylation (%) of Tau (Tau protein; 0.01 uM): 27%; Phosphorylation (%) of Tau (Tau protein; 0.03 uM): 13%; Phosphorylation (%) of Tau (Tau protein; 0.1 uM): 21%; Phosphorylation (%) of Tau (Tau protein; 0.3 uM): 21%
"Nc1nccc(-c2nc(-c3ccncc3F)ccc2O)n1 [Example 14, 6-(2-aminopyrimidin-4-yl)-3′-fluoro-[2,4′-bipyridin]-5-ol]",–,–,590,3410,–,–,–,–,–,–,–,"GI50 (SH-SY5Y; Homo sapiens, SH-SY5Y, 72 h): 540 nM; GI50 (SK-N-SH; Homo sapiens, SK-N-SH, 72 h): 1040 nM"
"Nc1nccc(-c2cc(-c3ccnc(N)n3)c(O)cn2)n1 [Example 3, 4,6-bis(2-aminopyrimidin-4-yl)pyridin-3-ol]",–,–,1150,2640,–,–,–,–,–,–,–,"GI50 (SH-SY5Y; Homo sapiens, SH-SY5Y, 72 h): 880 nM; GI50 (SK-N-SH; Homo sapiens, SK-N-SH, 72 h): 1430 nM"
"CC(C)c1cc(-c2nc(-c3ccnc(N)c3F)ccc2O)nc(N)n1 [Example 31, 2′-amino-6-(2-amino-6-isopropylpyrimidin-4-yl)-3′-fluoro-[2,4′-bipyridin]-5-ol]",–,–,30,–,8.64,9.23,7.44,8.50,7.21,180,100,–

# Further lines, with some results ahead:
GI50 (HCT116; 72 hrs) [nM],GI50 (U-87MG; 72 hrs) [nM],"GI50 (HCT116; Homo sapiens, HCT-116, 72 h) [nM]","GI50 (U-87MG; Homo sapiens, U-87 MG, 72 h) [nM]",pIC50 (CDK1/cyclinB),pIC50 (CDK2/cyclinE),pIC50 (CDK4/cyclinD1),pIC50 (CDK5/p25),pIC50 (CDK6/cyclinD3),"GI50 (A549; Homo sapiens, A549, 72 h) [nM]","GI50 (NCI-H23; Homo sapiens, NCI-H23, 72 h) [nM]",SMILES,further results
80,90,–,–,–,–,–,–,–,–,–,"Nc1nccc(-c2nc(-c3ccnc(N)c3F)ccc2O)n1 [Example 69, 2′-amino-6-(2-aminopyrimidin-4-yl)-3′-fluoro-[2,4′-bipyridin]-5-ol 2malonate]",GI50 (SH-SY5Y; 72 hrs): 4 nM; GI50 (SK-N-SH; 72 hrs): 20 nM
30,70,–,–,8.89,8.80,7.82,9.10,7.27,–,–,CC(C)c1cnc(N)nc1-c1nc(-c2ccnc(N)c2F)ccc1O [Example 104],GI50 (A549; 72 hrs): 80 nM; GI50 (NCI-H23; 72 hrs): 80 nM; GI50 (T98G; 72 hrs): 50 nM
–,–,10,–,9.15,7.84,7.20,8.72,7.22,20,30,"CN(C)c1cc(-c2nc(-c3ccnc(N)c3F)ccc2O)nc(N)n1 [Example 52, 2′-amino-6-(2-amino-6-(dimethylamino)pyrimidin-4-yl)-3′-fluoro-[2,4′-bipyridin]-5-ol]",–
–,–,10,30,8.40,7.97,< 6.70,8.55,7.06,20,40,"CN1CCN(c2cc(-c3nc(-c4ccnc(N)c4F)ccc3O)nc(N)n2)CC1 [Example 53, 2′-amino-6-(2-amino-6-(4-methylpiperazin-1-yl)pyrimidin-4-yl)-3′-fluoro-[2,4′-bipyridin]-5-ol]",–
10,100,–,–,–,–,–,–,–,–,–,"Nc1nccc(-c2nc(-c3ccnc(N)c3F)ccc2O)n1 [Example 68, 2′-amino-6-(2-aminopyrimidin-4-yl)-3′-fluoro-[2,4′-bipyridin]-5-oloxalate]",GI50 (SH-SY5Y; 72 hrs): 10 nM; GI50 (SK-N-SH; 72 hrs): 30 nM
–,–,3,10,9.00,8.35,7.09,8.55,7.45,10,10,"Nc1nc(-c2nc(-c3ccnc(N)c3F)ccc2O)cc(N2CCOCC2)n1 [Example 51, 2′-amino-6-(2-amino-6-morpholinopyrimidin-4-yl)-3′-fluoro-[2,4′-bipyridin]-5-ol]","GI50 (T98G; Homo sapiens, T98G, 72 h): 10 nM"
530,1650,–,–,–,–,–,–,–,–,–,"Nc1nccc(-c2nc(-c3ccc(O)cc3F)ccc2O)n1 [Example 70, 2-(2-aminopyrimidin-4-yl)-6-(2-fluoro-4-hydroxyphenyl)pyridin-3-ol 2hydrochloride]",GI50 (SH-SY5Y; 72 hrs): 160 nM; GI50 (SK-N-SH; 72 hrs): 580 nM

# Reference: patent US20200190062A1, “HETEROCYCLIC COMPOUND AND PHARMACEUTICAL COMPOSITION COMPRISING SAME” (BEYONDBIO INC., priority 2015, published 2020)
